Test results reported in ChEMBL document CHEMBL1201862, “PubChem BioAssay data set” (2004).
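Tested at 5 concentrations; 48 h exposure; 96-well plates; endpoints linearly interpolated, else capped at highest concentration. Here, GI50 denotes the concentration required for 50% inhibition of growth.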 The source made the active and inactive calls. No stated cut-off is given here; in the data, active = GI50 up to about 1.1 µM and inactive = higher.

Key:
Test in all cases: NCI-60 cell line screen, 48 h
EKVX = system: EKVX
786-0 = system: 786-0
MDA-MB-231 = system: MDA-MB-231
A549 = system: A549
NCI-H522 = system: NCI-H522
SK-MEL-2 = system: SK-MEL-2
PC-3 = system: PC-3
NCI-H226 = system: NCI-H226
UACC-62 = system: UACC-62
UACC-257 = system: UACC-257
KM12 = system: KM12
K562 = system: K562
SNB-78 = system: SNB-78
MCF7 = system: MCF7
HCT-116 = system: HCT-116
T47D = system: T47D
HT-29 = system: HT-29
NCI-H460 = system: NCI-H460
MOLT-4 = system: MOLT-4
OVCAR-4 = system: OVCAR-4

| Compound | GI50 (EKVX) | GI50 (786-0) | GI50 (MDA-MB-231) | GI50 (A549) | GI50 (NCI-H522) | GI50 (SK-MEL-2) | GI50 (PC-3) | GI50 (NCI-H226) | GI50 (UACC-62) | GI50 (UACC-257) | GI50 (KM12) | GI50 (K562) | GI50 (SNB-78) | GI50 (MCF7) | GI50 (HCT-116) | GI50 (T47D) | GI50 (HT-29) | GI50 (NCI-H460) | GI50 (MOLT-4) | GI50 (OVCAR-4) |
| --- | --- | --- | --- | --- | --- | --- | --- | --- | --- | --- | --- | --- | --- | --- | --- | --- | --- | --- | --- | --- |
| C1CCNCC1.S=C(S)N1CCCCC1 | 111 µM (inactive) | 97.3 µM (inactive) | 16.1 µM (inactive) | 0.632 µM (active) | 0.276 µM (active) | 85.3 µM (inactive) | 37.7 µM (inactive) | 192 µM (inactive) | 0.601 µM (active) | 28.4 µM (inactive) | 2.26 µM (inactive) | 0.601 µM (active) | 100 µM (inactive) | 26.4 µM (inactive) | 14.1 µM (inactive) | 91 µM (inactive) |  |  |  |  |
| COc1ccc2c(c1[N+](=O)[O-])CC[C@@H]1[C@@H]2CC[C@]2(C)C(=O)CC[C@@H]12 | > 25 µM (inactive) | 210 µM (inactive) | > 25 µM (inactive) | > 25 µM (inactive) | > 25 µM (inactive) | 14.8 µM (inactive) | 22 µM (inactive) | 23.1 µM (inactive) | 18.3 µM (inactive) | > 25 µM (inactive) | > 25 µM (inactive) | 24.9 µM (inactive) | 24.7 µM (inactive) | > 25 µM (inactive) | 20.3 µM (inactive) | > 25 µM (inactive) | > 25 µM (inactive) | 24.9 µM (inactive) | > 25 µM (inactive) | 15.5 µM (inactive) |
| CNC(=S)NC1CCCCC1NC(=S)NC (stereo not given) | > 100 µM (inactive) | > 100 µM (inactive) |  | > 100 µM (inactive) | > 100 µM (inactive) | > 100 µM (inactive) |  | > 100 µM (inactive) | > 100 µM (inactive) |  | > 100 µM (inactive) | > 100 µM (inactive) | > 100 µM (inactive) |  | > 100 µM (inactive) |  | > 100 µM (inactive) | > 100 µM (inactive) | > 100 µM (inactive) | > 100 µM (inactive) |
| Cc1nccc2c1cnc1ccnn12 | 67.1 µM (inactive) | > 100 µM (inactive) |  | > 100 µM (inactive) | > 100 µM (inactive) | > 100 µM (inactive) |  | > 100 µM (inactive) |  | > 100 µM (inactive) | > 100 µM (inactive) | > 100 µM (inactive) | > 100 µM (inactive) |  | > 100 µM (inactive) |  | > 100 µM (inactive) | > 100 µM (inactive) | > 100 µM (inactive) | > 100 µM (inactive) |
| N#CC(C(=O)/C(=N\NC(N)=O)C(C#N)c1ccc(Cl)cc1)c1ccc(Cl)cc1 (stereo not given) | > 100 µM (inactive) | > 100 µM (inactive) |  | > 100 µM (inactive) | > 100 µM (inactive) | > 100 µM (inactive) |  | > 100 µM (inactive) | > 100 µM (inactive) | > 100 µM (inactive) | > 100 µM (inactive) | > 100 µM (inactive) | > 100 µM (inactive) |  | > 100 µM (inactive) |  | > 100 µM (inactive) | > 100 µM (inactive) | > 100 µM (inactive) | > 100 µM (inactive) |
| CCc1cccc(C)c1N1C(=O)C(=O)C(c2nc3ccccc3o2)/C(=N/NC(=S)NN)C1=O (stereo not given) | > 100 µM (inactive) | > 100 µM (inactive) |  | > 100 µM (inactive) | > 100 µM (inactive) | > 100 µM (inactive) |  | > 100 µM (inactive) | > 100 µM (inactive) | > 100 µM (inactive) | > 100 µM (inactive) | > 100 µM (inactive) | > 100 µM (inactive) |  | > 100 µM (inactive) |  | > 100 µM (inactive) | > 100 µM (inactive) |  | > 100 µM (inactive) |
| COc1c(Br)cc(Br)c(OC)c1-c1ccc[nH]1 | > 100 µM (inactive) | > 100 µM (inactive) |  | > 100 µM (inactive) | 55.1 µM (inactive) | 45.3 µM (inactive) |  | 43.9 µM (inactive) | 56.1 µM (inactive) | > 100 µM (inactive) | > 100 µM (inactive) | 22.3 µM (inactive) | > 100 µM (inactive) |  | 97.3 µM (inactive) |  | 38.8 µM (inactive) | > 100 µM (inactive) | 46.8 µM (inactive) | 22.1 µM (inactive) |
| O=C(N/C(=C\c1cccc([N+](=O)[O-])c1)c1nc2ccccc2[nH]1)c1ccccc1 | > 100 µM (inactive) | 55.2 µM (inactive) |  | 35.2 µM (inactive) | 36.8 µM (inactive) | 66.7 µM (inactive) |  | 51.6 µM (inactive) | 88.1 µM (inactive) | > 100 µM (inactive) | 69 µM (inactive) | 50.5 µM (inactive) | 44.6 µM (inactive) |  | 59.8 µM (inactive) |  | 28.9 µM (inactive) | 87.1 µM (inactive) | 32.9 µM (inactive) | > 100 µM (inactive) |
| CCOc1ccc(C2=NN(CC)C(=O)C(C3C(=O)N(c4ccccc4)N=C3C)C2)cc1 (stereo not given) | > 100 µM (inactive) | > 100 µM (inactive) |  | > 100 µM (inactive) | > 100 µM (inactive) | > 100 µM (inactive) |  | > 100 µM (inactive) | > 100 µM (inactive) | > 100 µM (inactive) | > 100 µM (inactive) | > 100 µM (inactive) | > 100 µM (inactive) |  | > 100 µM (inactive) |  | > 100 µM (inactive) | > 100 µM (inactive) | > 100 µM (inactive) | > 100 µM (inactive) |
| CCOC(=O)CN1C(=O)c2cc([N+](=O)[O-])cc3cc([N+](=O)[O-])cc(c23)C1=O | > 100 µM (inactive) | 48.8 µM (inactive) | 45.4 µM (inactive) | > 100 µM (inactive) | 4.21 µM (inactive) | 22.5 µM (inactive) | > 100 µM (inactive) | 45.4 µM (inactive) | 22.8 µM (inactive) | 73.8 µM (inactive) | > 100 µM (inactive) | 5.13 µM (inactive) | 4.2 µM (inactive) | > 84.7 µM (inactive) | 15 µM (inactive) | > 100 µM (inactive) | 34.7 µM (inactive) | 73.6 µM (inactive) | 3.56 µM (inactive) | > 100 µM (inactive) |
